Results: PubChem BioAssay (NCI)
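Compound exposure: 48 hours, 5 concentrations, 96-well plates. TGI marks complete inhibition of growth.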

Experiments:
Assay in all cases: NCI tumour cell line growth inhibition, 48 h
A549 NSCLC = system: A549 NSCLC
COLO 205 colon = system: COLO 205 colon
SK-MEL-5 melanoma = system: SK-MEL-5 melanoma
MDA-MB-231 breast = system: MDA-MB-231 breast
HCT-116 colon = system: HCT-116 colon
SNB-75 CNS = system: SNB-75 CNS
OVCAR-5 ovarian = system: OVCAR-5 ovarian
SF-268 CNS = system: SF-268 CNS
LOX IMVI melanoma = system: LOX IMVI melanoma
SNB-19 CNS = system: SNB-19 CNS
CAKI-1 renal = system: CAKI-1 renal
HOP-62 NSCLC = system: HOP-62 NSCLC
NCI/ADR-RES ovarian = system: NCI/ADR-RES ovarian
HT29 colon = system: HT29 colon
IGROV1 ovarian = system: IGROV1 ovarian
NCI-H23 lung = system: NCI-H23 lung
HCT-15 colon = system: HCT-15 colon
K-562 leukemia = system: K-562 leukemia
SF-295 CNS = system: SF-295 CNS
RPMI-8226 leukemia = system: RPMI-8226 leukemia
MALME-3M melanoma = system: MALME-3M melanoma
HCC-2998 colon = system: HCC-2998 colon
SN12C renal = system: SN12C renal
UACC-62 melanoma = system: UACC-62 melanoma
MCF7 breast = system: MCF7 breast
EKVX NSCLC = system: EKVX NSCLC
CCRF-CEM leukemia = system: CCRF-CEM leukemia
SF-539 CNS = system: SF-539 CNS
HS 578T breast = system: HS 578T breast
786-0 renal = system: 786-0 renal
M14 melanoma = system: M14 melanoma
HOP-92 NSCLC = system: HOP-92 NSCLC
T-47D breast = system: T-47D breast
BT-549 breast = system: BT-549 breast
KM12 colon = system: KM12 colon
SK-OV-3 ovarian = system: SK-OV-3 ovarian
TK-10 renal = system: TK-10 renal
SW-620 colon = system: SW-620 colon
MDA-N = system: MDA-N
A498 renal = system: A498 renal
OVCAR-4 ovarian = system: OVCAR-4 ovarian
NCI-H460 lung = system: NCI-H460 lung
MOLT-4 leukemia = system: MOLT-4 leukemia
UACC-257 melanoma = system: UACC-257 melanoma
NCI-H226 lung = system: NCI-H226 lung
DU-145 prostate = system: DU-145 prostate
MDA-MB-435 = system: MDA-MB-435
OVCAR-3 ovarian = system: OVCAR-3 ovarian
NCI-H522 lung = system: NCI-H522 lung
OVCAR-8 ovarian = system: OVCAR-8 ovarian
HL-60(TB) leukemia = system: HL-60(TB) leukemia
SK-MEL-28 melanoma = system: SK-MEL-28 melanoma
ACHN renal = system: ACHN renal
U251 CNS = system: U251 CNS
SR leukemia = system: SR leukemia
UO-31 renal = system: UO-31 renal
SK-MEL-2 melanoma = system: SK-MEL-2 melanoma
RXF 393 renal = system: RXF 393 renal

Measured: TGI

C[C@H]1CC[C@@H]2[C@@H](C)C[C@H]3[C@@H]4C(C)(C)OC(=O)[C@]4(C)C(=O)[C@@]23C1=O
> 100 µM: A549 NSCLC | COLO 205 colon | SK-MEL-5 melanoma | MDA-MB-231 breast | HCT-116 colon | SNB-75 CNS | OVCAR-5 ovarian | SF-268 CNS | LOX IMVI melanoma | SNB-19 CNS | CAKI-1 renal | HOP-62 NSCLC | NCI/ADR-RES ovarian | HT29 colon | IGROV1 ovarian | NCI-H23 lung | HCT-15 colon | K-562 leukemia | SF-295 CNS | RPMI-8226 leukemia | MALME-3M melanoma | HCC-2998 colon | SN12C renal | UACC-62 melanoma | MCF7 breast | EKVX NSCLC | CCRF-CEM leukemia | SF-539 CNS | HS 578T breast | 786-0 renal | M14 melanoma | HOP-92 NSCLC | BT-549 breast | KM12 colon | SK-OV-3 ovarian | TK-10 renal | SW-620 colon | MDA-N | A498 renal | OVCAR-4 ovarian | NCI-H460 lung | MOLT-4 leukemia | UACC-257 melanoma | NCI-H226 lung | DU-145 prostate | MDA-MB-435 | OVCAR-3 ovarian | NCI-H522 lung | OVCAR-8 ovarian | HL-60(TB) leukemia | SK-MEL-28 melanoma | ACHN renal
68.1 µM: T-47D breast

O=c1[nH]nc(Cc2ccccc2)n1O
> 100 µM: A549 NSCLC | COLO 205 colon | U251 CNS | SK-MEL-5 melanoma | MDA-MB-231 breast | HCT-116 colon | SF-268 CNS | LOX IMVI melanoma | SNB-19 CNS | CAKI-1 renal | HOP-62 NSCLC | NCI/ADR-RES ovarian | HT29 colon | IGROV1 ovarian | NCI-H23 lung | K-562 leukemia | SF-295 CNS | RPMI-8226 leukemia | MALME-3M melanoma | SN12C renal | UACC-62 melanoma | MCF7 breast | EKVX NSCLC | CCRF-CEM leukemia | SF-539 CNS | SR leukemia | HS 578T breast | 786-0 renal | HOP-92 NSCLC | T-47D breast | BT-549 breast | KM12 colon | SK-OV-3 ovarian | TK-10 renal | SW-620 colon | UO-31 renal | MDA-N | A498 renal | OVCAR-4 ovarian | MOLT-4 leukemia | UACC-257 melanoma | NCI-H226 lung | DU-145 prostate | MDA-MB-435 | OVCAR-3 ovarian | NCI-H522 lung | OVCAR-8 ovarian | HL-60(TB) leukemia | SK-MEL-28 melanoma | ACHN renal

CC(=O)Oc1ccc2oc(=O)cc(C)c2c1
> 100 µM: A549 NSCLC | COLO 205 colon | U251 CNS | SK-MEL-5 melanoma | MDA-MB-231 breast | HCT-116 colon | SNB-75 CNS | SF-268 CNS | LOX IMVI melanoma | SNB-19 CNS | CAKI-1 renal | HOP-62 NSCLC | NCI/ADR-RES ovarian | HT29 colon | IGROV1 ovarian | NCI-H23 lung | K-562 leukemia | SF-295 CNS | RPMI-8226 leukemia | MALME-3M melanoma | HCC-2998 colon | SK-MEL-2 melanoma | SN12C renal | MCF7 breast | EKVX NSCLC | CCRF-CEM leukemia | SF-539 CNS | SR leukemia | HS 578T breast | 786-0 renal | M14 melanoma | HOP-92 NSCLC | T-47D breast | BT-549 breast | KM12 colon | TK-10 renal | SW-620 colon | UO-31 renal | MDA-N | A498 renal | OVCAR-4 ovarian | NCI-H460 lung | MOLT-4 leukemia | UACC-257 melanoma | NCI-H226 lung | DU-145 prostate | MDA-MB-435 | RXF 393 renal | OVCAR-3 ovarian | NCI-H522 lung | OVCAR-8 ovarian | HL-60(TB) leukemia | SK-MEL-28 melanoma | ACHN renal
